According to ChEMBL document CHEMBL1201862, “PubChem BioAssay data set” (2004):
The source made the active and inactive calls.

Key:
[1] = biological target: T1, Mannose-6-phosphate isomerase (Homo sapiens, UniProt P34949); assay: human PMI inhibitors, high substrate, primary screen, biochemical, fluorescence intensity, high mannose 6-phosphate (AID 1220)
T1 sequence (P34949 whole entry): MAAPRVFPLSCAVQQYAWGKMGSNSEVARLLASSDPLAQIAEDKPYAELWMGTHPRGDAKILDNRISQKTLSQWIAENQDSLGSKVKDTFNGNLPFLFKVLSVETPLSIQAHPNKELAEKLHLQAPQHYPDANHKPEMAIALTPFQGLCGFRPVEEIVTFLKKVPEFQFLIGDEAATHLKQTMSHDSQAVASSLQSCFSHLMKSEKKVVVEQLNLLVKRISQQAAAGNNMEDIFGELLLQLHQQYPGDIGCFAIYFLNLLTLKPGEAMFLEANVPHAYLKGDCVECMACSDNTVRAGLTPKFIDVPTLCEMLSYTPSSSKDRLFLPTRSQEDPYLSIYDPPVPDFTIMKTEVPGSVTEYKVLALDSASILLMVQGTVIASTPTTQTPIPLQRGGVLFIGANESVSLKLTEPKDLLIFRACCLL

SUMO-activating enzyme = SUMO-activating enzyme (Homo sapiens, UniProt Q9UBT2); assay: inhibitors of in vitro SUMOylation cascade, primary screen, biochemical, HTRF, uHTS (AID 2006); format: protein-complex assay
[2] = biological target: T2, Runt-related transcription factor 1/Core-binding factor subunit beta (Homo sapiens, UniProt Q01196+Q13951); assay: inhibitors of RUNX1 Runt–CBFb-SMMHC binding, biochemical, TR-FRET (AID 1438); format: protein assay
T2 sequence (Q01196 whole entry, the tested form may be a part): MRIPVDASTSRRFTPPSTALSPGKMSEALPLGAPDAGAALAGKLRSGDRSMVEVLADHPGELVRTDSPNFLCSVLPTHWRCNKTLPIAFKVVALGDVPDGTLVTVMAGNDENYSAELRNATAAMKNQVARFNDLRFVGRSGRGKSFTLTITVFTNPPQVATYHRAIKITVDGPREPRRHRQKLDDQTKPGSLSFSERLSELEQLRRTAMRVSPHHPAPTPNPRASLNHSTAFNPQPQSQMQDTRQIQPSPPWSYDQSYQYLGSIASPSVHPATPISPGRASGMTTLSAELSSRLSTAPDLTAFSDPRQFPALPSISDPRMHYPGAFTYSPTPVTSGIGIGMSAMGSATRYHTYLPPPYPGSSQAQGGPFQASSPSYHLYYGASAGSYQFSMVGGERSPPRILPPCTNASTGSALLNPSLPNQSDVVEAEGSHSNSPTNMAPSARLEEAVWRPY
T2 sequence (Q13951 whole entry, the tested form may be a part): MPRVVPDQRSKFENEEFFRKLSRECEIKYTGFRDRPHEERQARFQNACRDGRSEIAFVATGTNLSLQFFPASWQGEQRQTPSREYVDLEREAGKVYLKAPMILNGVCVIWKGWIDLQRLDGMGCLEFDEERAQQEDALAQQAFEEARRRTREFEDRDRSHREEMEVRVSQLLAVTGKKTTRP

[3] = biological target: T2, Runt-related transcription factor 1/Core-binding factor subunit beta; assay: inhibitors of RUNX1 Runt–CBFb-SMMHC binding, primary screen, biochemical, FRET, Cerulean-Runt, Venus-CBFb-SMMHC, uHTS (AID 1434); format: protein assay;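 note: partner is the CBFb-SMMHC leukemia fusion protein rather than wild-type CBFb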
[4] = biological target: T3, Voltage-gated N-type calcium channel alpha-1B subunit/Amyloid beta A4 precursor protein-binding family A member 1 (Homo sapiens, UniProt Q00975+Q02410); format: protein assay
T3 sequence (Q00975 whole entry): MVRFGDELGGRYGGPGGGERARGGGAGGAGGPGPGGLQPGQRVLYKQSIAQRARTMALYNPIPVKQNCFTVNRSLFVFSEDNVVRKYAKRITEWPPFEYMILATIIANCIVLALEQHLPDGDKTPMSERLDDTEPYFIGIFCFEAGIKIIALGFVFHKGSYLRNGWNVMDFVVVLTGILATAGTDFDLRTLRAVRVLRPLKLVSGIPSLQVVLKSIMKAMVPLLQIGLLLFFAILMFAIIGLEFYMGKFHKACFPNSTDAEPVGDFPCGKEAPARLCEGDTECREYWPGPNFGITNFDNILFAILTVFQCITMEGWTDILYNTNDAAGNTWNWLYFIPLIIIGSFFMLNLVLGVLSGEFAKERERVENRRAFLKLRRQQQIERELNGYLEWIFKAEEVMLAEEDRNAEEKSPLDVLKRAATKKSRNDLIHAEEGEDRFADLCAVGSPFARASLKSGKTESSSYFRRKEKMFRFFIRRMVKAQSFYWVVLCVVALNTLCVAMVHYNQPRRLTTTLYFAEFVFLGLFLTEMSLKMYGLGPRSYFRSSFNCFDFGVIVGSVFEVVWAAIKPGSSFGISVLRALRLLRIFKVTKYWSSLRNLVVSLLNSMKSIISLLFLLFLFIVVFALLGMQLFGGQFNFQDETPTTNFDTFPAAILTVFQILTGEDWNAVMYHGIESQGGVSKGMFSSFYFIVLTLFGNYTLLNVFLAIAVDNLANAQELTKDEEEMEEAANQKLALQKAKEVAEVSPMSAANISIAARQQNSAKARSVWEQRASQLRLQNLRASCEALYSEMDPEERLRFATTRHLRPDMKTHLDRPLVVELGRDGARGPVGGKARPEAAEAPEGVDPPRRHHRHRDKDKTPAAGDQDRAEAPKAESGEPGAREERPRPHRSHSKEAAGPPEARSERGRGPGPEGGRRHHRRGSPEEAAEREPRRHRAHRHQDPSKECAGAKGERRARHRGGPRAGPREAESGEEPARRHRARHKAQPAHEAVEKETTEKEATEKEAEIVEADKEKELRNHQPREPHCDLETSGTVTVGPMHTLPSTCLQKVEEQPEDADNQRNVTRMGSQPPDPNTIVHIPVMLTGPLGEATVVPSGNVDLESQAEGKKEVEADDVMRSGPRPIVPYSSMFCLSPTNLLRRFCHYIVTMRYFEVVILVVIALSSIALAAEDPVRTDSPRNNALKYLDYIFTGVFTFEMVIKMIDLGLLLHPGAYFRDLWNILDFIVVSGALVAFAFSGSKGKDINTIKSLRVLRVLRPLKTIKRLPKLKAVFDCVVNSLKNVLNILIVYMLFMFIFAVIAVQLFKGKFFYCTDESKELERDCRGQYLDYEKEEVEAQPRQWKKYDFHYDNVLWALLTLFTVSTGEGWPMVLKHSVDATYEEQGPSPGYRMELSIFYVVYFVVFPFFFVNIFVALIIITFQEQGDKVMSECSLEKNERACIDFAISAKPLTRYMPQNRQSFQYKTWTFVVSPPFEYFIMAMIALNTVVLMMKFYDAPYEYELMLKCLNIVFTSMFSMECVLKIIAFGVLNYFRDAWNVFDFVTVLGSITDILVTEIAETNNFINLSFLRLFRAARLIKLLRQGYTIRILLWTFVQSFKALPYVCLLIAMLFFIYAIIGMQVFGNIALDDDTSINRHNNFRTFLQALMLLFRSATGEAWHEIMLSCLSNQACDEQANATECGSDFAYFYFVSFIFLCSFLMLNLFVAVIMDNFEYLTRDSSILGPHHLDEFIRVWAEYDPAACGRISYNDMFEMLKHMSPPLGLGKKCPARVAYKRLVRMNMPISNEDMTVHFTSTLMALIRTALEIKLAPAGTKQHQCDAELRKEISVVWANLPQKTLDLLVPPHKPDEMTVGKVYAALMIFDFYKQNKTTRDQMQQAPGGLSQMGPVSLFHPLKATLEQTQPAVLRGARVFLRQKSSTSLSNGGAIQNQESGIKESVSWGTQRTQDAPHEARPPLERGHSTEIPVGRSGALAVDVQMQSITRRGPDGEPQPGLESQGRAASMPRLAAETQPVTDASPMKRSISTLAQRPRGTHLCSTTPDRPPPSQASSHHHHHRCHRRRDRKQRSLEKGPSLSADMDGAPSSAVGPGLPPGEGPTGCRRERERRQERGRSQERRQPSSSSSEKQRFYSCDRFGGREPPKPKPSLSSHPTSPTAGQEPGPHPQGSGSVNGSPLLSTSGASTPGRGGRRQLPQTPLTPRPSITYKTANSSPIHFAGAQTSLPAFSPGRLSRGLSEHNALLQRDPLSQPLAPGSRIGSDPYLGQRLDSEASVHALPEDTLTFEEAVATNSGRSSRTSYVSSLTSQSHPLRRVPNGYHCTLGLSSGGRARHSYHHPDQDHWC
T3 sequence (Q02410 whole entry): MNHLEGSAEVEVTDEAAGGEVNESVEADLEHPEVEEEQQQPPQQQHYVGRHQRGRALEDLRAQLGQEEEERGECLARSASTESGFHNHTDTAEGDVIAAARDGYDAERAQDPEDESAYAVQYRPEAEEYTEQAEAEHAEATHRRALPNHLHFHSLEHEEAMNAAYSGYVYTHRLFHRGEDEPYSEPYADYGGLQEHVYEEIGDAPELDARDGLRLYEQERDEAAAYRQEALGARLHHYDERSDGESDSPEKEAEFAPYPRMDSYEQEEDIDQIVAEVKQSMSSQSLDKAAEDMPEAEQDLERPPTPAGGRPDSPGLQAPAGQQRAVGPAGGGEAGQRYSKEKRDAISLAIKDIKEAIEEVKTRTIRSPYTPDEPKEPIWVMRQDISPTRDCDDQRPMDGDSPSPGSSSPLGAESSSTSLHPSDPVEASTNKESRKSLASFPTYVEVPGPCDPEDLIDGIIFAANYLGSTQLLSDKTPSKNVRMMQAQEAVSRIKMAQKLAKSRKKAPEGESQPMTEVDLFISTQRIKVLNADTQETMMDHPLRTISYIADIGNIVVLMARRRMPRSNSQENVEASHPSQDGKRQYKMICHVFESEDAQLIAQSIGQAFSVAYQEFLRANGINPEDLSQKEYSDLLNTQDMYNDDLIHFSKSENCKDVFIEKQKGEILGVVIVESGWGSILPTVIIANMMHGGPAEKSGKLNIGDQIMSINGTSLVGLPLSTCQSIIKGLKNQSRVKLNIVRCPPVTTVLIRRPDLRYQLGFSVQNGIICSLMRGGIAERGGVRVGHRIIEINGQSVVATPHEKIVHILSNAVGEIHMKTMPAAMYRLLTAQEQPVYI

[5] = biological target: T3, Voltage-gated N-type calcium channel alpha-1B subunit/Amyloid beta A4 precursor protein-binding family A member 1; format: protein assay; remark: listed apart in the source
[6] = biological target: COUP transcription factor 2 (Homo sapiens, UniProt P24468); assay: Luminescence-based cell-based high throughput dose response assay to identify inhibitors of COUP-TFII (NR2F2).; format: functional;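 note: HEK293 cells transiently cotransfected with COUP-TFII expression vector and reporter; luciferase reporter luminescence driven by COUP-TFII from the pX2-168 reporter plasmid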
[7] = biological target: T4, Corticotropin-releasing factor receptor 2/Corticotropin-releasing factor-binding protein (Homo sapiens, UniProt P24387+Q13324); assay: Dose Response confirmation of uHTS hits for small molecule antagonists of the CRF-binding protein and CRF-R2 receptor complex.; format: functional; details: read-out: IC50_Mean
T4 sequence (Q13324 whole entry): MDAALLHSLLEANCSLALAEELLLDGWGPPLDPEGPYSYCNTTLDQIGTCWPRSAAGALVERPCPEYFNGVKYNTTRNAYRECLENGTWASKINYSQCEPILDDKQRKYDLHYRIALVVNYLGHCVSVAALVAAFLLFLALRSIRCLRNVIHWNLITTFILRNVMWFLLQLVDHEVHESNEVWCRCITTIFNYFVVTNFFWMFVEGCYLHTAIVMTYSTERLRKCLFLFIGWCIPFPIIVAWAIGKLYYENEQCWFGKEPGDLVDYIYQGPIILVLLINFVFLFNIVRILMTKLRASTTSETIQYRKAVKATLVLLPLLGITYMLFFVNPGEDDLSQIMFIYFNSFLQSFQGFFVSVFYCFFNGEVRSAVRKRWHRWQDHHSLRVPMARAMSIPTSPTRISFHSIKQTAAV
T4 sequence (P24387 whole entry): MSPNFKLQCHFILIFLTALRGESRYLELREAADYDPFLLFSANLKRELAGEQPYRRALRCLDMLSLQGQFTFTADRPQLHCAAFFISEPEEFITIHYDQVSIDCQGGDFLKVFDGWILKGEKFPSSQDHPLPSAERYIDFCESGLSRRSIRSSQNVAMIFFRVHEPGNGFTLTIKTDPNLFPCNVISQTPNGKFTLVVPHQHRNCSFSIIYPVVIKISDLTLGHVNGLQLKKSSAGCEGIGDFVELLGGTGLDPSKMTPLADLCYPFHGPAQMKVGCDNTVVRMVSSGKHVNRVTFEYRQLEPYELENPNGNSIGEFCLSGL

[8] = system: Streptococcus sp. 'group A'; assay: growth inhibition of control SK(-) GAS strain, dose response, counter-screen for streptokinase expression inhibitor project, luminescence, kanamycin, BacTiterGlo, confirmation (AID 1900); format: functional, organism-based
Streptokinase A = biological target: T5, Streptokinase A (Streptococcus pyogenes serotype M1, UniProt P10520); assay: S. pyogenes streptokinase expression inhibitors, potency, dose response, plasminogen activation absorbance, OD405 (AID 1914); format: functional, Streptococcus pyogenes M1 GAS;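 note: secreted streptokinase activity via plasminogen activation per viability signal from cell pellet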
T5 sequence (P10520 whole entry): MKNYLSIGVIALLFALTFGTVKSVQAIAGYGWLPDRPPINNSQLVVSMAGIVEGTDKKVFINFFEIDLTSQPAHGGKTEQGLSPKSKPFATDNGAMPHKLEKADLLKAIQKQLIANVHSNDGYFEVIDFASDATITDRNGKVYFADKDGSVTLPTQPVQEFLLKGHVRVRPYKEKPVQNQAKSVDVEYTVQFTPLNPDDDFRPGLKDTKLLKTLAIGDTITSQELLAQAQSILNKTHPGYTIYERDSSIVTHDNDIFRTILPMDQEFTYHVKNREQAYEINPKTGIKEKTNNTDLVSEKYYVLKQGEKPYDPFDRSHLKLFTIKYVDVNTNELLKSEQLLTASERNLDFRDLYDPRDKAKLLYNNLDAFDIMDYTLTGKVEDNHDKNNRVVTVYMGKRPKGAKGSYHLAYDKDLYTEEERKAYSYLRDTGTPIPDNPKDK

[9] = cytotoxicity in HEK-293T cells, dose response, cytotoxicity control for TCR NF-kB inhibitor project, luminescence, T-cell screen hits (AID 489026); format: functional, cell-based;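 note: cells exposed to compound about 14 hours before the viability readout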
Streptococcus = assay: Group A Streptococcus viability loss, dose response, counter-screen for streptokinase expression inhibitor project, luminescence, BacTiterGlo (AID 1915); format: functional, organism-based;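 note: potency for reduction of bacterial viability or growth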
[10] = biological target: T4, Corticotropin-releasing factor receptor 2/Corticotropin-releasing factor-binding protein; assay: activators of CRF receptor 2 with binding protein – uHTS hits, confirmation (AID 602473); format: functional; details: read-out: EC50_Mean
CAAX prenyl protease 2 = biological target: T6, CAAX prenyl protease 2 (Saccharomyces cerevisiae S288c, UniProt Q03530); format: biochemical
T6 sequence (Q03530 whole entry): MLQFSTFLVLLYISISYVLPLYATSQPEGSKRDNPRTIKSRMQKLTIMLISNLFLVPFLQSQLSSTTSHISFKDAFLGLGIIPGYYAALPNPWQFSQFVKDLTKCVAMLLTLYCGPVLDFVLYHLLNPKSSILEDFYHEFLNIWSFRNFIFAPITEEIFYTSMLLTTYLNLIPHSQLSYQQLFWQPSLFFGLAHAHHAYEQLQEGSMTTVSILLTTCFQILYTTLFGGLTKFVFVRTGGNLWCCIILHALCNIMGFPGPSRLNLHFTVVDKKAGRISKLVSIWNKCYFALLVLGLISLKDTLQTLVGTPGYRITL

Trypsin = Trypsin (Sus scrofa, UniProt P00761); assay: porcine trypsin inhibitors, dose response, selectivity assay for Rce1 protease inhibitor project, biochemical, quenched peptide fluorescence, cherry-pick (AID 488789)
Hexokinase HKDC1 = biological target: T7, Hexokinase HKDC1 (Homo sapiens, UniProt Q2TB90); assay: HKDC1 hexokinase inhibitors, dose response, biochemical, W721R variant (AID 504729); format: functional
T7 sequence (Q2TB90 whole entry): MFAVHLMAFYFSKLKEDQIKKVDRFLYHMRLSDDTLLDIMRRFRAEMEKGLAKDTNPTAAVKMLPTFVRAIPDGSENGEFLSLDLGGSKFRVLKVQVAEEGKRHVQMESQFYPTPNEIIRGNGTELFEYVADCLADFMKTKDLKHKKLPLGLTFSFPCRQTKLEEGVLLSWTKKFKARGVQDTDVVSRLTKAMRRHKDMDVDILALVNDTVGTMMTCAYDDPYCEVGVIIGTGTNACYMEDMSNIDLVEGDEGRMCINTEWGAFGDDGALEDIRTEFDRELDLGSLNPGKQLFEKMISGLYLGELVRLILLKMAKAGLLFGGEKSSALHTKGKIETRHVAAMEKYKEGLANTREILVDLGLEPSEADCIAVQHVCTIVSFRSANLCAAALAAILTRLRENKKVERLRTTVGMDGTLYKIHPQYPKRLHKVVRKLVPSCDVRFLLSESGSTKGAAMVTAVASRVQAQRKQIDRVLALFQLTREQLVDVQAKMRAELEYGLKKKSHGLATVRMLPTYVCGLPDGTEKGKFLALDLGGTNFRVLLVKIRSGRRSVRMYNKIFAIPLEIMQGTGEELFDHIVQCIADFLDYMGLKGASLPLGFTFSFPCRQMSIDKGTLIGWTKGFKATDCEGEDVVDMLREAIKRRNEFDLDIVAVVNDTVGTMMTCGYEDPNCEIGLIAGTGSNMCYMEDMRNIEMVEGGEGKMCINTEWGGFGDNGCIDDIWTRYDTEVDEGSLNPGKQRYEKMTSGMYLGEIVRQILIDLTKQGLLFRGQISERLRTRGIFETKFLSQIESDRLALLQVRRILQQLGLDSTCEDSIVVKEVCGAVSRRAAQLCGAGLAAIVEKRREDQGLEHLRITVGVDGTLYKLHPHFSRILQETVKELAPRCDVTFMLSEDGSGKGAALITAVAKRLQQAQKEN

[11] = Fluorescence-based cell-based high throughput dose response assay for inhibitors of the interaction of nucleotide-binding oligomerization domain containing 2 (NOD2) and the receptor-interacting serine-threonine kinase 2 (RIPK2).; format: functional; details: Homo sapiens
[12] = growth suppression of PTEN-null colon cells, dose response, cell-based, HCT116 PTEN knockout (AID 1047); format: functional;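 note: HCT116 colon tumor cells with PTEN knocked out; cells exposed to compound for 60 hours before readout; potency for loss of cell viability measured by luminescence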
[13] = growth suppression of beta-catenin-knockout colon cells, dose response, cell-based, HCT116, human colon tumor (AID 1045); format: functional;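 note: HCT116 colon tumor cells with beta catenin knocked out; cells exposed to compound for 60 hours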
Beta Lactamase = Beta Lactamase (Pseudomonas aeruginosa, UniProt Q932Y6); assay: beta-lactamase reporter inhibitor potency, dose response, artefact control for NOD2-RIPK2 interaction inhibitor project, BLA reporter cells, FRET fluorescence (AID 651552); format: functional, cell-based
Coagulation factor XII = Coagulation factor XII (Homo sapiens, UniProt P00748); format: functional;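 note: activated factor XIIa alpha cleaving a fluorogenic AMC peptide substrate; inhibitor potency from loss of enzyme activity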
Coagulation factor XII, sequence (P00748 20-372 limits assumed): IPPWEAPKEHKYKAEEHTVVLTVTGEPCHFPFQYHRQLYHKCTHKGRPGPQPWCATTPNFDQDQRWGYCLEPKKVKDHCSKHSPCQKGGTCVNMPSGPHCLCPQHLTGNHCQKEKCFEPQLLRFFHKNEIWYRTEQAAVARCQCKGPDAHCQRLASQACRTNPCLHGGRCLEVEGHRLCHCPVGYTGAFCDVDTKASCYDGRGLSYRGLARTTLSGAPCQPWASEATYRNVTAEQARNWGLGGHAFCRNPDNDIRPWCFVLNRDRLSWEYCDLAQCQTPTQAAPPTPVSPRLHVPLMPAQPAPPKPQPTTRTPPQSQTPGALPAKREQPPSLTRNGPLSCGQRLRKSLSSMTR
Coagulation factor XII, sequence (P00748 373-615 limits assumed): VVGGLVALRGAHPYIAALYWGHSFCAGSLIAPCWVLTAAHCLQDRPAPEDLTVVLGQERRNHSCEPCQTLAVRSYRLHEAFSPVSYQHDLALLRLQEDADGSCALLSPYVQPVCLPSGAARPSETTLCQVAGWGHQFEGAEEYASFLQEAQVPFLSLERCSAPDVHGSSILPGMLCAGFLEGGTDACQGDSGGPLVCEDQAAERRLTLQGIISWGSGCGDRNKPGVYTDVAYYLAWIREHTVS

[14] = biological target: Voltage-dependent T-type calcium channel subunit alpha-1H (Homo sapiens, UniProt O95180); assay: Cav3.2 T-type channel inhibitors, cell-based, synthetic library set 1, calcium flux (AID 493022); format: functional
Hexokinase = Hexokinase (Trypanosoma brucei, UniProt Q38C41); assay: Confirmation assay for inhibitors of Trypanosoma brucei hexokinase 1-Analogue-first series. [Related pubchem assays (depositor defined):AID1430, AID1632, AID2516, AID2560, AID2579, AID2600, AID449725, AID492951]; format: functional
[15] = biological target: T8, Alkaline phosphatase, tissue-nonspecific isozyme (Homo sapiens, UniProt P05186); assay: human TNAP enzyme inhibitors, SAR follow-up, biochemical, luminescent, dose response (AID 1056)
T8 sequence (P05186 whole entry): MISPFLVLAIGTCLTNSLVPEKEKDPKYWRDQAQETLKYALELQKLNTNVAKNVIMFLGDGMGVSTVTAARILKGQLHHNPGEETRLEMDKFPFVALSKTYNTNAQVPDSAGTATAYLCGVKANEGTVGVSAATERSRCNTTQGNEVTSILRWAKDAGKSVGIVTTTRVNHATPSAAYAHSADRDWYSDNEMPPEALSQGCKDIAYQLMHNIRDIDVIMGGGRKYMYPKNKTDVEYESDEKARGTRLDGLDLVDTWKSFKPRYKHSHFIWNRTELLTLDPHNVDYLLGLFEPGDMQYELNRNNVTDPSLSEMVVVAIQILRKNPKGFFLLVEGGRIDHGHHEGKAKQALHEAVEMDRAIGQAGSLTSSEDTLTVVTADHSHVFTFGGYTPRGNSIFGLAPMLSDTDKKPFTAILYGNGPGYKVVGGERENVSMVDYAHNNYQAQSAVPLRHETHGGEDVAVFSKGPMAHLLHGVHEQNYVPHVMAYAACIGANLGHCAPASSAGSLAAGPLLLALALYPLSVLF

[16] = biological target: Alkaline phosphatase, placental type (Homo sapiens, UniProt P05187); assay: PLAP enzyme inhibitors, confirmation, biochemical, luminescence (AID 1512); format: functional
Alkaline phosphatase, placental type, sequence (P05187 whole entry): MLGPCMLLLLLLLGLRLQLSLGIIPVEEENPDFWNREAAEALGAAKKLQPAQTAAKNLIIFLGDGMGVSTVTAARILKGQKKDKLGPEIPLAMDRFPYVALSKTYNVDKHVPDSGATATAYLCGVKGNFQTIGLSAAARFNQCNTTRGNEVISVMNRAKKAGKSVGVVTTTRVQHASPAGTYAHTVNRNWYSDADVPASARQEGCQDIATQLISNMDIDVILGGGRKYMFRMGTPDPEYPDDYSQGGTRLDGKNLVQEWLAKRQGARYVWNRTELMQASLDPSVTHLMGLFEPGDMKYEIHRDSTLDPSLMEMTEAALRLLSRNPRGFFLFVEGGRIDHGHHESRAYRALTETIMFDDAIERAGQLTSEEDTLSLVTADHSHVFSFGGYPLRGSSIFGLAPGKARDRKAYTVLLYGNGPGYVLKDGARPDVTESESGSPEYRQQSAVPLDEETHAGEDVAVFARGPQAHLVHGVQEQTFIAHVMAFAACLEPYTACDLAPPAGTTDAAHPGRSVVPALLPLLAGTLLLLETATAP

CCN(CC)C(=O)C1CCCN(C(=O)Nc2ccc3nsnc3c2)C1 (stereo unspecified)
IC50 [1]: > 50 µM (not active)
IC50 (SUMO-activating enzyme): 12 µM (active)

Cc1cccn2c(=O)c(/C=C(\C#N)C(=O)NCc3ccco3)c(N3CCCC(C)C3)nc12 (stereo unspecified)
IC50 [2]: > 100 µM (inactive)
IC50 [3]: > 100 µM (inactive)

COc1ccc(-c2cc3c(=O)n(CC(=O)Nc4ccc(C(C)=O)cc4)ncn3n2)cc1
IC50 [4]: 7.89 µM (active)
IC50 [5]: > 50 µM (inactive)

CCC(=O)Nc1c(S(=O)(=O)c2ccccc2)c2nc3ccccc3nc2n1Cc1ccccc1
IC50 [2]: > 100 µM (inactive)
IC50 [3]: 4.74 µM (active)

COc1ccc(-c2ccc3oc(-c4ccc(OC)cc4)c(C#CCO)c3c2)cc1
IC50 [6]: 3.38 µM (active)
IC50 [7]: > 47.1 µM (inactive)
EC50 [8]: > 150 µM (not active)
EC50 (Streptokinase A): > 150 µM (not active)
IC50 [9]: > 80 µM (inactive)
EC50 (Streptococcus): > 150 µM (not active)
EC50 [10]: > 53 µM (inactive)

CCn1cc(/C=C(\NC(=O)c2ccccc2)C(=O)N2CCOCC2)c2ccccc21
AC50 (CAAX prenyl protease 2): 5.85 µM (active)
AC50 (Trypsin): 23.6 µM (active)

CC(C)(C=O)C1=CC(=O)c2ccccc2C1=O
IC50 (Hexokinase HKDC1): 27.9 µM (inactive)
IC50 [11]: 1.23 µM (active)
EC50 [12]: 4.68 µM (active)
EC50 [13]: 4.58 µM (active)
IC50 (Beta Lactamase): 11.5 µM (inactive)

c1ccc(-n2cccc2)c(N2CCCCC2)c1
IC50 (Coagulation factor XII): > 50 µM (inactive)

O=C(COc1ccccc1Cl)Nc1nnc(-c2ccc3c(c2)OCCO3)o1
EC50 [14]: 3.1 µM (active)

O=C(COc1ccccc1F)Nc1nnc(-c2ccc3c(c2)CCCC3)o1
EC50 [14]: 1.7 µM (active)

COc1ccc(C(=O)Nc2cccc(Cl)c2)cc1
IC50 (Hexokinase): > 25 µM (inactive)

CCCCN1C(=O)/C(=N\Nc2ccccc2Cl)c2ccccc21
IC50 [15]: > 100 µM (inactive)
IC50 [16]: 91.6 µM (active)

C/C(Cc1ccccc1)=N\NC(=O)CNC(=O)c1ccc(Cl)cc1Cl
IC50 (Coagulation factor XII): > 50 µM (inactive)

O=C(CSc1nc2ccccc2[nH]1)c1ccc(O)c(O)c1
IC50 [15]: 5.44 µM (active)
IC50 [16]: 4.79 µM (active)
